Experimental data reported in patent US20250346597A1, “CONDENSED HETEROCYCLIC COMPOUNDS AS INHIBITOR OF DIACYLGLYCEROL KINASES” (BEONE MEDICINES I GMBH, priority 2023, published 2025).

How the values were obtained:
DGKζ = DGKζ (Homo sapiens (Human), UniProt Q13574); assay: Biochemical DGK IC50 assay (ADP-Glo, lipid micelle substrate), DGKζ; settings: full length DGKζ 0.5 nM, ATP 140 μM, DAG 80 μM
Summary of the method: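 ADP-Glo luminescence measured ADP made in a 1 h room-temperature reaction. The enzyme was Sf9-expressed, purified full-length human DGKζ, and the substrate was DAG/PS micelles. Assay buffer held 50 mM HEPES, 10 mM MgCl2, 0.01 mM CaCl2, 0.1 mM Na3VO4 and 0.01% BSA. IC50 was derived from activity inhibition over a compound concentration series.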

DGKα = DGKα (Homo sapiens (Human), UniProt P23743); assay: Biochemical DGK IC50 assay (ADP-Glo, lipid micelle substrate), DGKα; settings: full length DGKα […], ATP 140 μM, DAG 80 μM; also: full length DGKα 7.5 nM
Summary of the method: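 Luminescent ADP-Glo detection followed a 1 h room-temperature reaction of full-length DGKα on DAG/PS micelles, in HEPES buffer with 10 mM MgCl2, 0.01 mM CaCl2, 0.1 mM Na3VO4, BSA and Tween-20. IC50 derived from inhibition across increasing compound concentrations.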

Chain of DGKζ (Q13574 other isoform, or with tags, fused parts or gaps): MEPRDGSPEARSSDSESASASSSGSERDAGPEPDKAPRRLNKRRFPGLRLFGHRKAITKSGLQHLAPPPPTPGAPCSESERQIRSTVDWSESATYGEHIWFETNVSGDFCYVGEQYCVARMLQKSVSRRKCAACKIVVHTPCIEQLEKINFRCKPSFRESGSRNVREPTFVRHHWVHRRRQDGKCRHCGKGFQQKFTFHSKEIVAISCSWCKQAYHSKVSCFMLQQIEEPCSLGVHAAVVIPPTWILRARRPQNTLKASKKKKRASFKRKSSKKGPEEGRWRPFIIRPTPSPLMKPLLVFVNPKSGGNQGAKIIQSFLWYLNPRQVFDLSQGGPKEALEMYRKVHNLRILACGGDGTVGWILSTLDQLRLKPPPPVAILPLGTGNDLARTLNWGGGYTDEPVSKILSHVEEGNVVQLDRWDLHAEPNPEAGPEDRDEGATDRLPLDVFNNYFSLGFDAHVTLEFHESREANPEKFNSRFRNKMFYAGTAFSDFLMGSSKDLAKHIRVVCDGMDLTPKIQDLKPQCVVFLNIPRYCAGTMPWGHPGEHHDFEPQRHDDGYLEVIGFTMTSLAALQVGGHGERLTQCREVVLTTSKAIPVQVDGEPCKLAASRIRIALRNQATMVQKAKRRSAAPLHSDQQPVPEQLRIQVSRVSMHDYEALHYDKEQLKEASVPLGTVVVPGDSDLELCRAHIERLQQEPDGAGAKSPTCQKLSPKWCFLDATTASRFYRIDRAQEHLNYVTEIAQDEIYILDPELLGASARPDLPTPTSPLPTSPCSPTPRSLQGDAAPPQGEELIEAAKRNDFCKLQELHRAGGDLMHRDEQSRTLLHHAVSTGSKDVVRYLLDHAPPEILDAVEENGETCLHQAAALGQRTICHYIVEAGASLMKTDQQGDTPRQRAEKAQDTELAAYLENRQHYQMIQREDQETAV
Chain of DGKα (P23743 whole entry): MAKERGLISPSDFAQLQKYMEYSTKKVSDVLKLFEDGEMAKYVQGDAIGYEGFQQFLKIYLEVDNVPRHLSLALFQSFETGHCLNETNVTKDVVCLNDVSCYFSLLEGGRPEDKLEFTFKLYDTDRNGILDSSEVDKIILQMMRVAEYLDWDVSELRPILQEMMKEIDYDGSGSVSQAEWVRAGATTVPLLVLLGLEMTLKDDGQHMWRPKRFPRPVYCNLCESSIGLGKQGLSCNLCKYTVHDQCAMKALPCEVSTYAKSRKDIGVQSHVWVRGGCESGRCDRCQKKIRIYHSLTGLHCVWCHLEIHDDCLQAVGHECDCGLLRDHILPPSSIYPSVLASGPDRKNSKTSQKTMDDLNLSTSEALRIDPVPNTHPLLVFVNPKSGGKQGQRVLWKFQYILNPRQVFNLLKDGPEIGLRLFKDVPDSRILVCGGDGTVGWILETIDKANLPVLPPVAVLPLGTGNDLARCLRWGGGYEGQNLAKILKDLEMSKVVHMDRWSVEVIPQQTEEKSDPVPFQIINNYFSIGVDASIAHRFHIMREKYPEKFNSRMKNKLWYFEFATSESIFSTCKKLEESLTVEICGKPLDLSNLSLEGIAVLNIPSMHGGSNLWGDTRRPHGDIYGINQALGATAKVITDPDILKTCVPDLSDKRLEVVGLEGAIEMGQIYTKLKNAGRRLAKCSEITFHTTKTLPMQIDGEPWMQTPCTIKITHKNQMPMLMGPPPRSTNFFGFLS

| SMILES | IC50 (DGKζ) | IC50 (DGKα) |
| --- | --- | --- |
| CCc1ccc(C(C)N2C[C@H](CC)N(c3cc(=O)n(C)c4cn(CC#N)nc34)C[C@H]2CC)cc1 (stereo partly drawn) [Compound A7, 2-(7-((2S,5R)-2,5-diethyl-4-(1-(4-ethylphenyl)ethyl)piperazin-1-yl)-4-methyl-5-oxo-4,5-dihydro-2H-pyrazolo[4,3-b]pyridin-2-yl)acetonitrile] | 152 nM | 129 nM |
| CC[C@H]1CN(C(C)c2ccc(C(F)(F)F)c(C)c2)[C@H](CC)CN1c1cc(=O)n(C)c2cn(CC#N)nc12 (stereo partly drawn) [Compound A8, 2-(7-((2S,5R)-2,5-diethyl-4-(1-(3-methyl-4-(trifluoromethyl)phenyl)ethyl)piperazin-1-yl)-4-methyl-5-oxo-4,5-dihydro-2H-pyrazolo[4,3-b]pyridin-2-yl)acetonitrile] | 229 nM | 1000 nM |
| CC[C@H]1CN(C(C)c2ccc(OC)c(C)c2)[C@H](CC)CN1c1cc(=O)n(C)c2cn(CC#N)nc12 (stereo partly drawn) [Compound A9, 2-(7-((2S,5R)-2,5-diethyl-4-(1-(4-methoxy-3-methylphenyl)ethyl)piperazin-1-yl)-4-methyl-5-oxo-4,5-dihydro-2H-pyrazolo[4,3-b]pyridin-2-yl)acetonitrile] | 339 nM | 2110 nM |
| CC[C@H]1CN(C(C)c2ccc(C(C)(F)F)cc2)[C@H](CC)CN1c1cc(=O)n(C)c2cn(CC#N)nc12 (stereo partly drawn) [Compound A10, 2-(7-((2S,5R)-4-(1-(4-(1,1-difluoroethyl)phenyl)ethyl)-2,5-diethylpiperazin-1-yl)-4-methyl-5-oxo-4,5-dihydro-2H-pyrazolo[4,3-b]pyridin-2-yl)acetonitrile] | 104 nM | 162 nM |
| CC[C@H]1CN(C(C)c2ccc(OCCOC)cc2)[C@H](CC)CN1c1cc(=O)n(C)c2cn(CC#N)nc12 (stereo partly drawn) [Compound A11, 2-(7-((2S,5R)-2,5-diethyl-4-(1-(4-(2-methoxyethoxy)phenyl)ethyl)piperazin-1-yl)-4-methyl-5-obo-4,5-dihydro-2H-pyrazolo[4,3-b]pyridin-2-yl)acetonitrile] | 500 nM | 79 nM |
| CC[C@H]1CN(C(C)c2ccc(OC)cc2F)[C@H](CC)CN1c1cc(=O)n(C)c2cn(CC#N)nc12 (stereo partly drawn) [Compound A12, 2-(7-((2S,5R)-2,5-diethyl-4-(1-(2-fluoro-4-methoxyphenyl)ethyl)piperazin-1-yl)-4-methyl-5-oxo-4,5-dihydro-2H-pyrazolo[4,3-b]pyridin-2-yl)acetonitrile] | 92 nM | 440 nM |
| CC[C@H]1CN(C(C)c2ccc(OC3CCOC3)cc2F)[C@H](CC)CN1c1cc(=O)n(C)c2cn(CC#N)nc12 (stereo partly drawn) [Compound A13, 2-(7-((2S,5R)-2,5-diethyl-4-(1-(2-fluoro-4-((tetrahydrofuran-3-yl)oxy)phenyl)ethyl)piperazin-1-yl)-4-methyl-5-oxo-4,5-dihydro-2H-pyrazolo[4,3-b]pyridin-2-yl)acetonitrile] | 323 nM | 838 nM |
| CC[C@H]1CN(C(C)c2ccc(OC)cc2C)[C@H](CC)CN1c1cc(=O)n(C)c2cn(CC#N)nc12 (stereo partly drawn) [Compound A14, 2-(7-((2S,5R)-2,5-diethyl-4-(1-(4-methoxy-2-methylphenyl)ethyl)piperazin-1-yl)-4-methyl-5-oxo-4,5-dihydro-2H-pyrazolo[4,3-b]pyridin-2-yl)acetonitrile] | 63 nM | 8410 nM |
| CC[C@H]1CN(C(C)c2ccc(COC3CCOCC3)cc2)[C@H](CC)CN1c1cc(=O)n(C)c2cn(CC#N)nc12 (stereo partly drawn) [Compound A15, 2-(7-((2S,5R)-2,5-diethyl-4-(1-(4-(((tetrahydro-2H-pyran-4-yl)oxy)methyl)phenyl)ethyl)piperazin-1-yl)-4-methyl-5-oxo-4,5-dihydro-2H-pyrazolo[4,3-b]pyridin-2-yl)acetonitrile] | 219 nM | 193 nM |
| CC[C@H]1CN(C(C)c2ccc(COC3COC3)cc2)[C@H](CC)CN1c1cc(=O)n(C)c2cn(CC#N)nc12 (stereo partly drawn) [Compound A16, 2-(7-((2S,5R)-2,5-diethyl-4-(1-(4-((oxetan-3-yloxy)methyl)phenyl)ethyl)piperazin-1-yl)-4-methyl-5-oxo-4,5-dihydro-2H-pyrazolo[4,3-b]pyridin-2-yl)acetonitrile] | 170 nM | 204 nM |
| CC[C@H]1CN(C(C)c2ccc(COC3CCOC3)cc2)[C@H](CC)CN1c1cc(=O)n(C)c2cn(CC#N)nc12 (stereo partly drawn) [Compound A17, 2-(7-((2S,5R)-2,5-diethyl-4-(1-(4-(((tetrahydrofuran-3-yl)oxy)methyl)phenyl)ethyl)piperazin-1-yl)-4-methyl-5-oxo-4,5-dihydro-2H-pyrazolo[4,3-b]pyridin-2-yl)acetonitrile] | 315 nM | 343 nM |
| CC[C@H]1CN(C(C)c2ccc(COCCOC)cc2)[C@H](CC)CN1c1cc(=O)n(C)c2cn(CC#N)nc12 (stereo partly drawn) [Compound A18, 2-(7-((2S,5R)-2,5-diethyl-4-(1-(4-((2-methoxyethoxy)methyl)phenyl)ethyl)piperazin-1-yl)-4-methyl-5-oxo-4,5-dihydro-2H-pyrazolo[4,3-b]pyridin-2-yl)acetonitrile] | 97 nM | 249 nM |
| CC[C@H]1CN(C(C)c2ccc(OC)c(F)c2)[C@H](CC)CN1c1cc(=O)n(C)c2cn(CC#N)nc12 (stereo partly drawn) [Compound A20, 2-(7-((2S,5R)-2,5-diethyl-4-(1-(3-fluoro-4-methoxyphenyl)ethyl)piperazin-1-yl)-4-methyl-5-oxo-4,5-dihydro-2H-pyrazolo[4,3-b]pyridin-2-yl)acetonitrile] | 312 nM | 378 nM |
| CC[C@H]1CN(C(C)c2ccc(OC3COC3)cc2F)[C@H](CC)CN1c1cc(=O)n(C)c2cn(CC#N)nc12 (stereo partly drawn) [Compound A22, 2-(7-((2S,5R)-2,5-diethyl-4-(1-(2-fluoro-4-(oxetan-3-yloxy)phenyl)ethyl)piperazin-1-yl)-4-methyl-5-oxo-4,5-dihydro-2H-pyrazolo[4,3-b]pyridin-2-yl)acetonitrile] | 465 nM | 833 nM |
| CC[C@H]1CN(C(C)c2ccc(OC3(C)COC3)cc2)[C@H](CC)CN1c1cc(=O)n(C)c2cn(CC#N)nc12 (stereo partly drawn) [Compound A24, 2-(7-((2S,5R)-2,5-diethyl-4-(1-(4-((3-methyloxetan-3-yl)oxy)phenyl)ethyl)piperazin-1-yl)-4-methyl-5-oxo-4,5-dihydro-2H-pyrazolo[4,3-b]pyridin-2-yl)acetonitrile] | 427 nM | 100 nM |
| CC[C@H]1CN(C(C)c2ccc(CN3CC(F)(F)C3)cc2)[C@H](CC)CN1c1cc(=O)n(C)c2cn(CC#N)nc12 (stereo partly drawn) [Compound A27, 2-(7-((2S,5R)-4-(1-(4-((3,3-difluoroazetidin-1-yl)methyl)phenyl)ethyl)-2,5-diethylpiperazin-1-yl)-4-methyl-5-oxo-4,5-dihydro-2H-pyrazolo[4,3-b]pyridin-2-yl)acetonitrile] | 202 nM | 50 nM |
| CC[C@H]1CN(C(C)c2ccc(CN(C)C)cc2)[C@H](CC)CN1c1cc(=O)n(C)c2cn(CC#N)nc12 (stereo partly drawn) [Compound A28, 2-(7-((2S,5R)-4-(1-(4-((dimethylamino)methyl)phenyl)ethyl)-2,5-diethylpiperazin-1-yl)-4-methyl-5-oxo-4,5-dihydro-2H-pyrazolo[4,3-b]pyridin-2-yl)acetonitrile] | 4830 nM | 10000 nM |
| CC[C@H]1CN(C(C)c2ccc(CNC)cc2)[C@H](CC)CN1c1cc(=O)n(C)c2cn(CC#N)nc12 (stereo partly drawn) [Compound A29, 2-(7-((2S,5R)-2,5-diethyl-4-(1-(4-((methylamino)methyl)phenyl)ethyl)piperazin-1-yl)-4-methyl-5-oxo-4,5-dihydro-2H-pyrazolo[4,3-b]pyridin-2-yl)acetonitrile] | 3930 nM | 2600 nM |
| CC[C@H]1CN(C(C)c2ccc(-c3cn(C)nn3)cc2)[C@H](CC)CN1c1cc(=O)n(C)c2cn(CC#N)nc12 (stereo partly drawn) [Compound A30, 2-(7-((2S,5R)-2,5-diethyl-4-(1-(4-(1-methyl-1H-1,2,3-triazol-4-yl)phenyl)ethyl)piperazin-1-yl)-4-methyl-5-oxo-4,5-dihydro-2H-pyrazolo[4,3-b]pyridin-2-yl)acetonitrile] | 3690 nM | 666 nM |
| CC[C@H]1CN(C(C)c2ccc(C(C)C)cc2)[C@H](CC)CN1c1cc(=O)n(C)c2cn(CC#N)nc12 (stereo partly drawn) [Compound A31, 2-(7-((2S,5R)-2,5-diethyl-4-(1-(4-isopropylphenyl)ethyl)piperazin-1-yl)-4-methyl-5-oxo-4,5-dihydro-2H-pyrazolo[4,3-b]pyridin-2-yl)acetonitrile] | 213 nM | 615 nM |
| CC[C@H]1CN(C(C)c2ccc(OC3CC3)cc2)[C@H](CC)CN1c1cc(=O)n(C)c2cn(CC#N)nc12 (stereo partly drawn) [Compound A32, 2-(7-((2S,5R)-4-(1-(4-cyclopropoxyphenyl)ethyl)-2,5-diethylpiperazin-1-yl)-4-methyl-5-oxo-4,5-dihydro-2H-pyrazolo[4,3-b]pyridin-2-yl)acetonitrile] | 244 nM | 183 nM |
| CC[C@H]1CN([C@H](C)c2ccc(OC(C)C)cc2)[C@H](CC)CN1c1cc(=O)n(C)c2cn(CC#N)nc12 [Compound A33a] | 45 nM | 49 nM |
| CC[C@H]1CN([C@@H](C)c2ccc(OC(C)C)cc2)[C@H](CC)CN1c1cc(=O)n(C)c2cn(CC#N)nc12 [Compound A33b] | 770 nM | 344 nM |
| CC[C@H]1CN(C(C)c2ccc(OC3CC3)nc2)[C@H](CC)CN1c1cc(=O)n(C)c2cn(CC#N)nc12 (stereo partly drawn) [Compound A37, 2-(7-((2S,5R)-4-(1-(6-cyclopropoxypyridin-3-yl)ethyl)-2,5-diethylpiperazin-1-yl)-4-methyl-5-oxo-4,5-dihydro-2H-pyrazolo[4,3-b]pyridin-2-yl)acetonitrile] | 202 nM | 541 nM |
